In patent publication US20250163066A1, “PROTACs of MALT1” (TEGID THERAPEUTICS, INC., priority 2022, published 2025) one finds EC50 and CC50 data, which are given here for 16 compounds.

Assay [1] relates to IL-2 MALT1-dependent release in Jurkat cells. Put plainly: cells. The class given is cell-based. Conditions: Homo sapiens; for EC50: Jurkat cells stimulated with antiCD3/antiCD28 for 24 h, IL-2 ELISA, read-out: EC50, IL-2 MALT1-dependent release inhibition; for CC50: Jurkat, 24 h, read-out: CC50 (IL-2 MALT1-dependent release inhibition). As to the method:
Jurkat cells (ATCC, USA) (100,000 cells/well in a 96 well flat-bottom plate (Greiner, #655061) were cultured in RPMI 1640 supplemented with 10% FBS at 37° C., 5% CO2 in a humidified cell culture incubator for 0.5-1 h. Then 10 μl/well 15× compound (or DMSO) was added in duplicates. Cells were incubated with compound in a humidified cell culture incubator for 0.5-1 h. After the incubation, 10 μl/well of 15× human antiCD3 HIT3a antibody (BioLegend) together with 10 μl/well of 15× human antiCD28 antibody (Invitrogen) were added to stimulate Jurkat cells for 24 h. After 24 h of stimulation, supernatants were collected and IL-2 levels in supernatants were assessed using IL-2 ELISA kit (Vector-Best, Russia).
(An ELISA detects its analyte on a solid surface through an enzyme-linked reagent.)

Assay [2] concerns the target MALT1 (Homo sapiens (Human), UniProt Q9UDY8). The experiment in a line: MALT1 enzymatic activity inhibition (fluorescence, Ac-LRSR-AMC substrate). The class given is biochemical. The note with it: recombinant MALT1 1.5 ng/μl, Ac-LRSR-AMC 1 μM. In a few lines:
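Recombinant human MALT1 (1.5 ng/μl final) preincubated 10 min at rt with compounds in 50 mM HEPES pH 7.2-7.4, 100 mM NaCl, 900 mM sodium citrate, 10 mM DTT; 1 μM Ac-LRSR-AMC then added. AMC fluorescence read at start and after 30 min 37 °C plus 30 min rt; difference gives signal, % inhibition fitted to IC50.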

MALT1, sequence (Q9UDY8 whole entry): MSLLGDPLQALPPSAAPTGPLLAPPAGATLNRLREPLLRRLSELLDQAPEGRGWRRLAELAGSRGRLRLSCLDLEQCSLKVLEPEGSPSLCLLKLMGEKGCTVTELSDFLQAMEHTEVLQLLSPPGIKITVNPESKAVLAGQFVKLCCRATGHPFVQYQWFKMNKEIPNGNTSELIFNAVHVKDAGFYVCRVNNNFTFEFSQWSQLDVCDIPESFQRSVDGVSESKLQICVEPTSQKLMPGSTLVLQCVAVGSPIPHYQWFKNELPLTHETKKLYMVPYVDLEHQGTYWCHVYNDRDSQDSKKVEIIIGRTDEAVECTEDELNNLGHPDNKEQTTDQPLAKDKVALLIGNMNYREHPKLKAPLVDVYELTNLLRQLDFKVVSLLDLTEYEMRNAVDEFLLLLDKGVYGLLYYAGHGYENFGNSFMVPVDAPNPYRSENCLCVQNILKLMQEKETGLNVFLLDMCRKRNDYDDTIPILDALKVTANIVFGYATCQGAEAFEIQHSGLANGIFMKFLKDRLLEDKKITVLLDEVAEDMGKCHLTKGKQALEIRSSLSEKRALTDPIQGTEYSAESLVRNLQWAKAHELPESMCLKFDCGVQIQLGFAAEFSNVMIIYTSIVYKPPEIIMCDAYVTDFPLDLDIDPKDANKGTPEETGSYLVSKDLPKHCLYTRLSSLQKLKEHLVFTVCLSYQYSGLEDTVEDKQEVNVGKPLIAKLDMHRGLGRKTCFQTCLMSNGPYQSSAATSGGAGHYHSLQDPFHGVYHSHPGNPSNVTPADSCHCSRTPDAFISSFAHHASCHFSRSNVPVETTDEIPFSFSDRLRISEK

Broadly, the EC50 is the midpoint of the concentration-response curve. Take `O=C1CCC(N2Cc3cc(N4CCN(C(=O)CCCCc5nc(-c6ncc(NC(=O)Nc7cnc8ccnn8c7C7CCCC7)cc6C(F)(F)F)no5)CC4)ccc3C2=O)C(=O)N1` (centres unmarked) [Compound 96, 1-(7-cyclopentylpyrazolo[1,5-a]pyrimidin-6-yl)-3-[6-[5-[5-[4-[2-(2,6-dioxo-3-piperidyl)-1-oxo-isoindolin-5-yl]piperazin-1-yl]-5-oxo-pentyl]-1,2,4-oxadiazol-3-yl]-5-(trifluoromethyl)-3-pyridyl]urea]: the results for the EC50 in assay [1] and in assay [2] were less than 500 nM and no more than 0.2 µM, respectively.

Regarding `O=C1CCC(N2Cc3cc(N4CCN(C(=O)CCCCCc5nc(-c6ncc(NC(=O)Nc7cnc8ccnn8c7C7CCCC7)cc6C(F)(F)F)no5)CC4)ccc3C2=O)C(=O)N1` (centres unmarked) [Compound 104, 1-(7-cyclopentylpyrazolo[1,5-a]pyrimidin-6-yl)-3-[6-[5-[6-[4-[2-(2,6-dioxo-3-piperidyl)-1-oxo-isoindolin-5-yl]piperazin-1-yl]-6-oxo-hexyl]-1,2,4-oxadiazol-3-yl]-5-(trifluoromethyl)-3-pyridyl]urea], the EC50 was less than 500 nM in assay [1] and no more than 0.2 µM in assay [2].

As for `O=C1CCC(N2Cc3cc(N4CCN(C(=O)CCCc5nc(-c6ncc(NC(=O)Nc7cnc8ccnn8c7C7CCCC7)cc6C(F)(F)F)no5)CC4)ccc3C2=O)C(=O)N1` (centres unmarked) [Compound 106, 1-(7-cyclopentylpyrazolo[1,5-a]pyrimidin-6-yl)-3-[6-[5-[4-[4-[2-(2,6-dioxo-3-piperidyl)-1-oxo-isoindolin-5-yl]piperazin-1-yl]-4-oxo-butyl]-1,2,4-oxadiazol-3-yl]-5-(trifluoromethyl)-3-pyridyl]urea], the EC50 in assay [1] is less than 500 nM; in assay [2], no more than 0.2 µM.

Regarding `Cc1cc(NC(=O)Nc2cnc3ccnn3c2C2CCCCC2)cnc1-c1noc(CCCCCC(=O)N2CCN(c3ccc4c(c3)CN(C3CCC(=O)NC3=O)C4=O)CC2)n1` (centres unmarked) [Compound 107, 1-(7-cyclohexylpyrazolo[1,5-a]pyrimidin-6-yl)-3-[6-[5-[6-[4-[2-(2,6-dioxo-3-piperidyl)-1-oxo-isoindolin-5-yl]piperazin-1-yl]-6-oxo-hexyl]-1,2,4-oxadiazol-3-yl]-5-methyl-3-pyridyl]urea], the EC50 is 1000 to 5000 nM in assay [1] and no more than 0.2 µM in assay [2].

Consider `O=C1CCC(N2Cc3cc(N4CCN(CCCCCc5nc(-c6ncc(NC(=O)Nc7cnc8ccnn8c7C7CCCC7)cc6C(F)(F)F)no5)CC4)ccc3C2=O)C(=O)N1` (centres unmarked) [Compound 108, 1-(7-cyclopentylpyrazolo[1,5-a]pyrimidin-6-yl)-3-[6-[5-[5-[4-[2-(2,6-dioxo-3-piperidyl)-1-oxo-isoindolin-5-yl]piperazin-1-yl]pentyl]-1,2,4-oxadiazol-3-yl]-5-(trifluoromethyl)-3-pyridyl]urea], for which the results for the EC50 in assay [1] and in assay [2] were less than 500 nM and no more than 0.2 µM, respectively.

What is called CC50 is the concentration at which the toxic effect on the cells reaches its halfway point. Turning to `Cc1cc(NC(=O)Nc2cnc3ccnn3c2C2CCCCC2)cnc1-c1noc(CCCCCC(=O)Nc2ccc3c(c2)CN(C2CCC(=O)NC2=O)C3=O)n1` (centres unmarked) [Compound 109, 6-[3-[5-[(7-cyclohexylpyrazolo[1,5-a]pyrimidin-6-yl)carbamoylamino]-3-methyl-2-pyridyl]-1,2,4-oxadiazol-5-yl]-N-[2-(2,6-dioxo-3-piperidyl)-1-oxo-isoindolin-5-yl]hexanamide], the CC50 in assay [1] was less than 500 nM. The EC50 in assay [2] was in the range of 0.2 to 0.5 µM.

`CC(C)c1c(NC(=O)Nc2ccc(-c3nnc(CCCCCC(=O)N4CCN(c5ccc6c(c5)CN(C5CCC(=O)NC5=O)C6=O)CC4)o3)nc2)cnc2ccnn12` (centres unmarked) [Compound 110, 1-[6-[5-[6-[4-[2-(2,6-dioxo-3-piperidyl)-1-oxo-isoindolin-5-yl]piperazin-1-yl]-6-oxo-hexyl]-1,3,4-oxadiazol-2-yl]-3-pyridyl]-3-(7-isopropylpyrazolo[1,5-a]pyrimidin-6-yl)urea]: the CC50 in assay [1] was greater than 5000 nM. Besides, in assay [2], the EC50 is 1 to 5 µM.

Consider `O=C1CCC(N2Cc3cc(N4CCN(C(=O)CCCCCc5nnc(-c6ccc(NC(=O)Nc7cnc8ccnn8c7C7CCCC7)cn6)o5)CC4)ccc3C2=O)C(=O)N1` (centres unmarked) [Compound 111, 1-(7-cyclopentylpyrazolo[1,5-a]pyrimidin-6-yl)-3-[6-[5-[6-[4-[2-(2,6-dioxo-3-piperidyl)-1-oxo-isoindolin-5-yl]piperazin-1-yl]-6-oxo-hexyl]-1,3,4-oxadiazol-2-yl]-3-pyridyl]urea], for which, in assay [1], the half-maximal cytotoxic concentration (CC50) was greater than 5000 nM. Besides, the EC50 in assay [2] was in the range of 1 to 5 µM.

Consider `Cc1cc(NC(=O)Nc2cnc3ccnn3c2C2CCC2)cnc1-c1noc(CCCCC(=O)N2CCN(c3ccc4c(c3)CN(C3CCC(=O)NC3=O)C4=O)CC2)n1` (centres unmarked) [Compound 112, 1-(7-cyclobutylpyrazolo[1,5-a]pyrimidin-6-yl)-3-[6-[5-[5-[4-[2-(2,6-dioxo-3-piperidyl)-1-oxo-isoindolin-5-yl]piperazin-1-yl]-5-oxo-pentyl]-1,2,4-oxadiazol-3-yl]-5-methyl-3-pyridyl]urea], for which the CC50 in assay [1] is greater than 5000 nM. In addition, the EC50 in assay [2] was no more than 0.2 µM.

Consider `O=C1CCC(N2Cc3cc(N4CCN(C(=O)CCCCCc5nc(-c6ncc(NC(=O)Nc7cnc8ccnn8c7C7CCC7)cc6Cl)no5)CC4)ccc3C2=O)C(=O)N1` (centres unmarked) [Compound 116, 1-[5-chloro-6-[5-[6-[4-[2-(2,6-dioxo-3-piperidyl)-1-oxo-isoindolin-5-yl]piperazin-1-yl]-6-oxo-hexyl]-1,2,4-oxadiazol-3-yl]-3-pyridyl]-3-(7-cyclobutylpyrazolo[1,5-a]pyrimidin-6-yl)urea], for which the half-maximal cytotoxic concentration (CC50) in assay [1] was less than 500 nM. Also, the concentration giving a half-maximal response (EC50) in assay [2] is no more than 0.2 µM.

Take `O=C1CCC(N2Cc3cc(N4CCN(C(=O)CCCCCc5nc(-c6ncc(NC(=O)Nc7cnc8ccnn8c7C7CCCCC7)cc6Cl)no5)CC4)ccc3C2=O)C(=O)N1` (centres unmarked) [Compound 118, 1-[5-chloro-6-[5-[6-[4-[2-(2,6-dioxo-3-piperidyl)-1-oxo-isoindolin-5-yl]piperazin-1-yl]-6-oxo-hexyl]-1,2,4-oxadiazol-3-yl]-3-pyridyl]-3-(7-cyclohexylpyrazolo[1,5-a]pyrimidin-6-yl)urea]: the half-maximal cytotoxic concentration (CC50) in assay [1] is less than 500 nM. Besides, the EC50 in assay [2] was no more than 0.2 µM.

As to `O=C1CCC(N2Cc3cc(N4CCN(CCCCCCc5nc(-c6ncc(NC(=O)Nc7cnc8ccnn8c7C7CCCCC7)cc6Cl)no5)CC4)ccc3C2=O)C(=O)N1` (centres unmarked) [Compound 119, 1-[5-chloro-6-[5-[6-[4-[2-(2,6-dioxo-3-piperidyl)-1-oxo-isoindolin-5-yl]piperazin-1-yl]hexyl]-1,2,4-oxadiazol-3-yl]-3-pyridyl]-3-(7-cyclohexylpyrazolo[1,5-a]pyrimidin-6-yl)urea], the 50% cytotoxic concentration (CC50) in assay [1] was less than 500 nM. Further, the EC50 in assay [2] was no more than 0.2 µM.

For `O=C1CCC(N2Cc3cc(N4CCN(C(=O)CCCc5nc(-c6ncc(NC(=O)Nc7cnc8ccnn8c7C7CCCCC7)cc6Cl)no5)CC4)ccc3C2=O)C(=O)N1` (centres unmarked) [Compound 120, 1-[5-chloro-6-[5-[4-[4-[2-(2,6-dioxo-3-piperidyl)-1-oxo-isoindolin-5-yl]piperazin-1-yl]-4-oxo-butyl]-1,2,4-oxadiazol-3-yl]-3-pyridyl]-3-(7-cyclohexylpyrazolo[1,5-a]pyrimidin-6-yl)urea], the CC50 in assay [1] was less than 500 nM. The EC50 in assay [2] is no more than 0.2 µM.

Take `Cc1cc(NC(=O)Nc2cnc3ccnn3c2C2CCCCC2)cnc1-c1noc(CCCCCCN2CCN(c3ccc4c(c3)CN(C3CCC(=O)NC3=O)C4=O)CC2)n1` (centres unmarked) [Compound 122, 1-(7-cyclohexylpyrazolo[1,5-a]pyrimidin-6-yl)-3-[6-[5-[6-[4-[2-(2,6-dioxo-3-piperidyl)-1-oxo-isoindolin-5-yl]piperazin-1-yl]hexyl]-1,2,4-oxadiazol-3-yl]-5-methyl-3-pyridyl]urea]: in assay [1], the CC50 is less than 500 nM. The EC50 in assay [2] is no more than 0.2 µM.

Consider `Cc1cc(NC(=O)Nc2cnc3ccnn3c2C2CCCCC2)cnc1-c1noc(CCCC(=O)Nc2ccc3c(c2)CN(C2CCC(=O)NC2=O)C3=O)n1` (centres unmarked) [Compound 123, 4-[3-[5-[(7-cyclohexylpyrazolo[1,5-a]pyrimidin-6-yl)carbamoylamino]-3-methyl-2-pyridyl]-1,2,4-oxadiazol-5-yl]-N-[2-(2,6-dioxo-3-piperidyl)-1-oxo-isoindolin-5-yl]butanamide], for which, in assay [1], the CC50 is less than 500 nM. Also, in assay [2], the EC50 is no more than 0.2 µM.

Turning to `Cc1cc(NC(=O)Nc2cnc3ccnn3c2C2CCCCC2)cnc1-c1noc(CCCCC(=O)N2CCN(c3ccc4c(c3)CN(C3CCC(=O)NC3=O)C4=O)CC2)n1` (centres unmarked) [Compound 124, 1-(7-cyclohexylpyrazolo[1,5-a]pyrimidin-6-yl)-3-[6-[5-[5-[4-[2-(2,6-dioxo-3-piperidyl)-1-oxo-isoindolin-5-yl]piperazin-1-yl]-5-oxo-pentyl]-1,2,4-oxadiazol-3-yl]-5-methyl-3-pyridyl]urea], the CC50 in assay [1] was in the range of 1000 to 5000 nM. The EC50 in assay [2] is no more than 0.2 µM.
